US20250262210A1, “LZTR1 MUTANT TUMORS AND METHODS THEREOF” (The Trustees of Columbia University in the City of New York, priority 2022, published 2025)
Peptide text beside a SMILES is read from it. * marks the point of attachment. Cbz = O=C(OCc1ccccc1)*

Columns and labels:
AXL [1] = assay: Ubiquitylation assay of AXL in Hela cells; assay type: cell-based; conditions: chloroquine 100 μM, MG132 20 μM, FIG. 3F
Description: (§1) 293T and Hela cells were transfected with plasmid expressing EGFR-GFP, HA-Ub and LZTR1-FLAG as indicated in figures and treated with MLN4924 (1 μM), chloroquine (CQ, 100 μM), MG132 (20 μM), or EGF (20 ng/ml or 100 ng/ml) and ubiquitylation assay was performed under denaturing condition. Cells were lysed in 1% SDS and boiled at 100° C. for 10 min. Lysates were diluted with tris buffered saline containing 1% N P40 and centrifuged 14000 r.p.m. for 15 min at 4° C. Immunoprecipitation was performed using 500 μg to 1 mg of cellular lysates using HA affinity gel (Sigma, E6779), AXL or EGFR antibodies at 4° C. overnight followed by protein G/A beads for 90 min at 4° C. […] Protein samples were separated by SDS-PAGE and transferred to PV DF membrane and analyzed by western blot.

[2] = tested on: subcutaneous tumors of schwannoma-like cells from Lztr1fl/fl;Cdkn2Afl/fl;GFAP-Cre+ mice (E0954); assay type: in vivo; conditions: single RTK inhibitor; summary in the discussion
Description: Mice were weighted daily. Tumor diameters were measured every 2 days with caliper and tumor volumes estimated using the formula: width2×length/2=V (mm3). Mice were euthanized when the tumor size reached 2,000 mm3 or if the skin was ulcerated, according to IACUC recommendation. All experiments were performed according to the guidelines of the Institutional Animal Care and Use Committee at Columbia University.

[3] = tested on: schwannoma-like cells from Lztr1fl/fl;Cdkn2Afl/fl;GFAP-Cre+ mice (E0954); assay: Clonogenic assay of schwannoma-like cells; assay type: cell-based, mouse; conditions: single dose; 72 hr treatment; FIG. 15C-F
Description: 500 cells were seeded in triplicate wells of 6-well plates. […] Cells were stained with crystal violet and colonies were counted.

AXL [4] = assay: LZTR1-mediated destabilization of AXL in transfected HEK 293T cells (western blot); assay type: cell-based; conditions: HEK 293T cells with AXL-HA and LZTR1-FLAG; FIG. 3B, 3D
Description: (§2) Cells were lysed in RIPA buffer (50 mM Tris-HCl, pH 7.5, 150 mM NaCl, 1 mM EDTA, 1% NP40, 0.5% sodium deoxycholate, 0.1% sodium dodecyl sulphate, 1.5 mM Na3VO4, 50 mM sodium fluoride, 10 mM sodium pyrophosphate, 10 mM β-glycerolphosphate and EDTA-free protease inhibitor cocktail (Roche)) or NP40 lysis buffer (50 mM Tris-HCl, pH 7.5, 150 mM NaCl, 1 mM EDTA, 1% NP40, 1.5 mM Na3VO4, 50 mM sodium fluoride, 10 mM sodium pyrophosphate, 10 mM β-glycerolphosphate and EDTA-free protease inhibitor cocktail (Roche)). Lysates were centrifuged 14,000 r.p.m. for 15 min at 4° C. and supernatant were collected. […] Beads were washed with lysis buffer four times and eluted in 2×SDS sample buffer. Immunoprecipitates or lysates were separated by SDS-PAGE and transferred to polyvinylidene difluoride or nitrocellulose membranes. Membranes were blocked in TBS-T (0.1% Tween20) with 5% non-fat milk or BSA and probed with primary antibodies.

EGFR [5] = assay: LZTR1-mediated destabilization of EGFR in transfected HEK 293T cells (western blot); assay type: cell-based; conditions: HEK 293T cells with EGFR-GFP and LZTR1-FLAG; FIG. 3A, 3C
Description: as §2

RIT1 = assay: LZTR1-mediated reduction of RIT1 in transfected HEK 293T cells (western blot); assay type: cell-based; conditions: HEK 293T cells with FLAG-RIT1 and LZTR1-FLAG; FIG. 10A, 10C
Description: as §2

EGFR [6] = assay: Ubiquitylation assay of EGFR in HEK 293T cells; assay type: cell-based; conditions: MLN4924 1 μM, FIG. 3E
Description: as §1

CC(C)C[C@@H](C=O)NC(=O)[C@H](CC(C)C)NC(=O)[C@H](CC(C)C)NC(=O)OCc1ccccc1 [MG132] (Cbz-Leu-Leu-Leu-aldehyde)
LZTR1-increased polyubiquitylated species of AXL (AXL [1]): ineffective

Nc1nc(Nc2ccc3c(c2)CC[C@@H](N2CCCC2)CC3)nn1-c1cc2c(nn1)-c1ccccc1CCC2 [bemcentinib]
therapeutic effect of single treatment [2]: minimal
clonogenicity [3]: ineffective

CO/C1=C\C(C)=C\[C@@H](C)[C@@H](O)[C@@H](C)C/C(C)=C/C=C/[C@H](OC)[C@@H]([C@@H](C)[C@@H](O)[C@H](C)[C@@]2(O)C[C@@H](O)[C@H](C)[C@@H](C(C)C)O2)OC1=O [bafilomycin A1]
LZTR1-mediated destabilization of AXL (AXL [4]): relieved
LZTR1-mediated destabilization of EGFR (EGFR [5]): relieved

CN(C)C/C=C/C(=O)Nc1cc2c(Nc3ccc(F)c(Cl)c3)ncnc2cc1O[C@H]1CCOC1 [afatinib]
clonogenicity [3]: ineffective

CC(C)C[C@H](NC(=O)[C@H](Cc1ccccc1)NC(=O)c1cnccn1)B(O)O [bortezomib]
RIT1 reduction by LZTR1 (RIT1): rescued

NS(=O)(=O)OC[C@@H]1C[C@@H](n2ccc3c(N[C@H]4CCc5ccccc54)ncnc32)C[C@@H]1O [MLN4924]
LZTR1-increased formation of high molecular weight polyubiquitylated EGFR (EGFR [6]): abolished
LZTR1-mediated destabilization of AXL (AXL [4]): rescued
LZTR1-mediated destabilization of EGFR (EGFR [5]): rescued
RIT1 reduction by LZTR1 (RIT1): rescued

CCN(CC)CCCC(C)Nc1ccnc2cc(Cl)ccc12 (stereo not shown) [chloroquine]
LZTR1-increased polyubiquitylated species of AXL (AXL [1]): accumulated at much higher levels

C=CC(=O)Nc1cc(Nc2nccc(-c3cn(C)c4ccccc34)n2)c(OC)cc1N(C)CCN(C)C [osimertinib]
clonogenicity [3]: ineffective
